# Assay results reported in US20060210479A1 (Dow Global Technologies Inc., priority 2004, published 2006).
# Entries after “also recorded” stand apart in the source; their conditions may differ. Marks after values point to notes of the source that are not given here.
# Key:
# [1] = molecular target: T1, Amphiphysin I (Homo sapiens, UniProt P49418); test: Elution and identification of target-chelate compound associations; assay type: binding
# T1 construct: Caco-2 and LNCaP cell lines were lysed by sonication or by lysis in hypotonic buffer; endogenous in cells; host or cells: Caco-2 and LNCaP
# T1 sequence (P49418 1-653 isoform P49418-2): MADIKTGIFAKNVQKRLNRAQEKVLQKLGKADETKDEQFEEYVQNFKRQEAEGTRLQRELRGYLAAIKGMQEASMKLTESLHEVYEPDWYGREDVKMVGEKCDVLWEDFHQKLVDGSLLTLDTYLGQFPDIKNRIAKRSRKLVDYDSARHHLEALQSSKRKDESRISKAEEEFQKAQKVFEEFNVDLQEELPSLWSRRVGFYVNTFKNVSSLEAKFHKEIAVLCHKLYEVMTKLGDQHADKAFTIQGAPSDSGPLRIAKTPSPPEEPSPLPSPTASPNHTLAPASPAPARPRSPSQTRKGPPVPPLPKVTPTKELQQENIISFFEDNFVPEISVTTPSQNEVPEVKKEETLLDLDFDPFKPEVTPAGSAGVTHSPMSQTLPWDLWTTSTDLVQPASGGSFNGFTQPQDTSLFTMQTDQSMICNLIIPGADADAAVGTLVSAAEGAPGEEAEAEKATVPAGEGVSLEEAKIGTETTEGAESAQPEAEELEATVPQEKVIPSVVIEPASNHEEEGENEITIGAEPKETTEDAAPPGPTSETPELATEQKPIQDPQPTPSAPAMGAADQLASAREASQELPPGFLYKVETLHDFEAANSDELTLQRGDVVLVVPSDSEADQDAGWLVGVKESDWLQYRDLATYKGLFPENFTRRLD
# Method: (§1) Identification of novel target-chelate compound associations—Caco-2 and LNCaP cell lines were lysed by sonication or by lysis in hypotonic buffer. Soluble proteins were enriched and captured on an affinity support column. […] Proteins were eluted by adding different chelate compounds that compete for the bound ligand or change the steric structure of a given protein(s). Eluted samples were analyzed by high resolution SDS-PAGE. The protein-chelate compound associations were further analyzed to identify the different proteins by excising the corresponding protein bands from the gel, which was then treated with trypsin and purified. […]
# [2] = molecular target: T2, BiP (Homo sapiens, UniProt P11021); test: as above; assay type: binding
# T2 construct: Caco-2 and LNCaP cell lines were lysed by sonication or by lysis in hypotonic buffer; endogenous in cells; host or cells: Caco-2 and LNCaP
# T2 sequence (P11021 19-654): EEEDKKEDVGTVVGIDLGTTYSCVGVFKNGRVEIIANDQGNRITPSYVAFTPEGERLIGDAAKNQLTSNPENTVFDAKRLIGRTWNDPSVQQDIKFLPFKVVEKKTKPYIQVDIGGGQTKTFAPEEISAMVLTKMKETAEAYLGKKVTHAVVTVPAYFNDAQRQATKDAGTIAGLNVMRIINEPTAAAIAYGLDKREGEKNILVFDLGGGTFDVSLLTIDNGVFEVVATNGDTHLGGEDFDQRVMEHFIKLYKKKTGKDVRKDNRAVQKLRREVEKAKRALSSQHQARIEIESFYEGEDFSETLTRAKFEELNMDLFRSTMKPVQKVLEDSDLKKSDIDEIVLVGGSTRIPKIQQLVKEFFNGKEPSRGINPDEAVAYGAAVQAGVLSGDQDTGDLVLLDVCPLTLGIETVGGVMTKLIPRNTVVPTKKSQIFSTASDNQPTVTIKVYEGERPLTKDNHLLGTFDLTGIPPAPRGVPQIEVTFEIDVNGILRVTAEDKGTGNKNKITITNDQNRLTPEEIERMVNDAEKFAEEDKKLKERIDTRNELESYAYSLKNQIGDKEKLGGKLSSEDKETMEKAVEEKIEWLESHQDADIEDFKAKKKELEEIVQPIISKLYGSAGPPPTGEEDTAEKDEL
# Method: as §1
# [3] = system: Caco-2 cells; test: Adsorption of chelate compounds to cells (HPLC and mass spectrometry); assay type: cell-based, human; settings: for Adsorption Caco-2: 50 µM chelate compound, 0, 30 and 90 minutes at 37 °C, % adsorbed relative to time zero
# Excerpt: (§2) As a prerequisite for the understanding of the functional attributes of Tb-PCTMB and Eu-QCTME for diagnostics and therapeutic purposes, and for other uses, it is useful to synthesize a series of chelate compounds that contain structural elements of both PCTMB and QCTME and test these compounds for adsorption and permeability to different cell lines. The first approach was to test for adsorption to a normal cell line (HEK293) and to two epithelial cancer cell lines (LNCaP and Caco-2). The second approach, described in this example, involves testing only the compounds that adsorbed in the cancer cell lines and not in the normal cell lines for permeability. Adsorption and permeability of the compounds to epithelial cancer cell lines and a normal cell line was measured through the detection of the compound by HPLC and mass spectrometry.
# (§3) Cell cultures. LNCaP cell line is a human prostate carcinoma. Cells were grown in RPMI 1640 Medium supplemented 10% FBS, 2 mM L-glutamine, glucose (2 g/L) augmented with gentamicin (50 μg/mL), penicillin/streptomycin (100 IU/mL/100 μg/mL) and amphotericin B (2.5 μg/mL). Caco-2 cell line is a human colorectal carcinoma. These cells were grown in Eagle's Minimum Essential Medium supplemented with 20% FBS, Earle's BSS, 2 mM L-glutamine, 1.0 mM sodium pyruvate, 0.1 mM nonessential amino acids augmented with gentamicin (50 μg/mL), penicillin/streptomycin (100 IU/mL/100 μg/mL), and amphotericin B (2.5 μg/mL). The human kidney transformed cells HEK293 were grown in Eagle's Minimum Essential Medium (EMEM) supplemented with 10% (v/v) heat-inactivated fetal bovine serum, sodium pyruvate, nonessential amino acids and antibiotics in a humidified 5% CO2 atmosphere at 37° C. Medium and supplements were purchased from Gibco BRL (Grand Island, N.Y.) and all cell lines were obtained from ATCC.
# (§4) Detection of chelate compounds for the determination of adsorption. Cells were grown to confluence in T-150 flasks (about 2×10^7 cells). Before treating with chelate compounds, cells were rinsed twice with warm 10 mM HEPES (Gibco BRL, Grand Island N.Y.), removed from the flask, and transferred to a 50-mL conical tube and centrifuged (400×g) for 5 minutes. The resulting cells were treated with individual chelate compounds with 50 µM of chelate compounds in 10 mM HEPES, pH 7.4, 5 mM KCl, 150 mM NaCl, 0.7 mM NaH2PO4 for 0, 30, and 90 minutes at 37 ° C. After treatment, cells were pelleted by centrifugation and the resulting solution was analyzed by a combination of HPLC and mass spectrometry.
# [4] = system: HEK293 cells; test: as above; assay type: cell-based, human; settings: for Adsorption HEK293: 50 µM chelate compound, 0, 30 and 90 minutes at 37 °C, % adsorbed relative to time zero
# Excerpt: as §2, §3, §4
# [5] = system: LNCaP cells; test: as above; assay type: cell-based, human; settings: for Adsorption LNCaP: 50 µM chelate compound, 0, 30 and 90 minutes at 37 °C, % adsorbed relative to time zero
# Excerpt: as §2, §3, §4
# [6] = system: HEK293 cells; test: Permeability: detection of chelate compounds in the cytoplasm; assay type: cell-based, human; parameters: key: Absence = 0; presence = +; settings: 50 μM, 90 minutes at 37 °C
# Method: as §3
# (§5) Detection of chelant compounds for the determination of permeability. Cells were grown to confluence in T-150 flasks (about 2×10^7 cells). Before treating with chelate compounds, cells were rinsed twice with warm 10 mM HEPES (Gibco BRL, Grand Island N.Y.), removed from the flask, and transferred to a 50-mL conical tube and centrifuged (400×g) for 5 minutes. The resulting cells were treated with individual chelate compounds with 50 μM of chelate compounds in 10 mM HEPES, pH 7.4, 5 mM KCl, 150 mM NaCl, 0.7 mM NaH2PO4 for 90 minutes at 37° C. After treatment, cells were pelleted by centrifugation, the cytoplasm was extracted by Mem-PER Eukaryotic Membrane Protein Extraction Reagent Kit as described by manufacturers (Pierce biotechnology, Rockford, Ill.) and the resulting solution was analyzed by a combination of HPLC and mass spectrometry (Table 8).
# [7] = system: LNCaP cells; test: as above; assay type: cell-based, human; parameters: key to Permeability LNCaP: Absence = 0; presence = +; settings: for Permeability LNCaP: 50 μM, 90 minutes at 37 °C, detection in the cytoplasm; for detection within the cytoplasm: carcinoma cell line LNCaP
# Method: as §3, §5
# [8] = system: Caco-2 cells; test: as above; assay type: cell-based, human; parameters: key to Permeability Caco-2: Absence = 0; presence = +; settings: for Permeability Caco-2: 50 μM, 90 minutes at 37 °C, detection in the cytoplasm; for detection within the cytoplasm: carcinoma cell line Caco-2
# Method: as §3, §5
# [9] = Solubility of chelate compounds; settings: <5% methanol, ethanol, or DMSO
# [10] = molecular target: T3, Cytokeratin 8 (Homo sapiens, UniProt P05787); test: Elution and identification of target-chelate compound associations; assay type: binding
# T3 construct: Caco-2 and LNCaP cell lines were lysed by sonication or by lysis in hypotonic buffer; endogenous in cells; host or cells: Caco-2 and LNCaP
# T3 sequence (P05787 1-483): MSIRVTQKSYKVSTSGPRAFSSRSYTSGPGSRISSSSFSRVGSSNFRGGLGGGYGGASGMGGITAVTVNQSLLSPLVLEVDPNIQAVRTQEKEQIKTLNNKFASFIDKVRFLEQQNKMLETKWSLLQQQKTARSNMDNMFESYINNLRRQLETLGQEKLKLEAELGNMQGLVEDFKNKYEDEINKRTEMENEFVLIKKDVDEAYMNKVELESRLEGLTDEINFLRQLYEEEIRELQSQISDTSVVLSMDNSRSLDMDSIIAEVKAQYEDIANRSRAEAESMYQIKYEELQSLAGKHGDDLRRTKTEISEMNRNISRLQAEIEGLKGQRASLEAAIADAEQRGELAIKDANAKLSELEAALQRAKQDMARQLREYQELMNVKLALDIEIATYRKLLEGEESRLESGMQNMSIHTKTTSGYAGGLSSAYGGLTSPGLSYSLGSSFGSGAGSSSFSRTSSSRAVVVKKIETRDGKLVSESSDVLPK
# T3 sequence (P05783 2-430 partner limits assumed): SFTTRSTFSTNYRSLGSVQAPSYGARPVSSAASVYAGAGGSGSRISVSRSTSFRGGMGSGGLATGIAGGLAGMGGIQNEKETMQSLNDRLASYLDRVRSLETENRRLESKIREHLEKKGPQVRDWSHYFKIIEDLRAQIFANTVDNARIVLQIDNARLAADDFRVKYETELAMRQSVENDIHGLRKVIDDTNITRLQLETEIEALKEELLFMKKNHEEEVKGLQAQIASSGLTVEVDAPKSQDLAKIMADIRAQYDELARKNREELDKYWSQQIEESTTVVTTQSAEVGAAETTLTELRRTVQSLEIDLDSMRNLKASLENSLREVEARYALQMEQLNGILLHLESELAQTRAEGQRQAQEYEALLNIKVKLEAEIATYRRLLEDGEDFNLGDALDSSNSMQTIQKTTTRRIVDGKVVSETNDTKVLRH
# Method: as §1
# [11] = molecular target: T4, Keratin 18 (Homo sapiens, UniProt P05783); test: as above; assay type: binding
# T4 construct: Caco-2 and LNCaP cell lines were lysed by sonication or by lysis in hypotonic buffer; endogenous in cells; host or cells: Caco-2 and LNCaP
# T4 sequence (P05783 2-430 limits assumed): T3 sequence (P05783 2-430 partner limits assumed)
# T4 sequence (P05787 1-483 partner): T3 sequence (P05787 1-483)
# Method: as §1
SMILES,binding to amphiphysin I (Seq. ID No. 7) [1],binding to BiP (Seq. ID No. 5) [2],adsorption in carcinoma cell line Caco-2 [3],Adsorption Caco-2 [3],adsorption in normal cells (HEK293) [4],Adsorption HEK293 [4],adsorption in carcinoma cell line LNCaP [5],Adsorption LNCaP [5],Permeability HEK293 [6],Permeability LNCaP [7],detection within the cytoplasm [7],Permeability Caco-2 [8],detection within the cytoplasm [8],solubility [9],binding to cytokeratin 8 (Seq. ID No. 10) [10],binding to keratin 18 (Seq. ID No. 9) [11]
CCOP(=O)(O)Cc1ccc2cc(C)ccc2n1 [Compound 2],found to bind; also recorded: bind specifically,found to bind; also recorded: bind specifically,adsorbed,++ (++ = 21-40%),not adsorbed,0 (0 = 0-10%),adsorbed,++ (++ = 21-40%),0^b,+,detected within the cytoplasm,+,detected within the cytoplasm,> 10 mM,,
CCCCOP(=O)(O)Cc1ccc2cc(C)ccc2n1 [Compound 3],found to bind; also recorded: bind specifically,found to bind; also recorded: bind specifically,adsorbed,++ (++ = 21-40%),not adsorbed,0 (0 = 0-10%),adsorbed,++++ (++++ = >60%),0,+,detected within the cytoplasm,+,detected within the cytoplasm,> 10 mM,,
"CCOP(=O)(O)Cc1cc(CP(=O)(O)OCC)cc(CP(=O)(O)OCC)c1 [Compound 8, [3,5-Bis-(Ethoxy-hydroxy-phosphorylmethyl)-benzyl]-phosphonic acid monoethyl ester]",,,adsorbed,+++ (+++ = 41-60%),not adsorbed,0 (0 = 0-10%),adsorbed,+++ (+++ = 41-60%),0,+,detected within the cytoplasm,+,detected within the cytoplasm,> 10 mM,found to bind; also recorded: bind specifically,found to bind; also recorded: bind specifically
"CCCCOP(=O)(O)Cc1cc(CP(=O)(O)OCCCC)cc(CP(=O)(O)OCCCC)c1 [Compound 9, [3,5-Bis-(Butoxy-hydroxy-phosphorylmethyl)-benzyl]-phosphonic acid monobutyl ester]",,,adsorbed,++ (++ = 21-40%),not adsorbed,0 (0 = 0-10%),adsorbed,++ (++ = 21-40%),0,+,detected within the cytoplasm,+,detected within the cytoplasm,> 10 mM,found to bind; also recorded: bind specifically,found to bind; also recorded: bind specifically
"CCCCOP(=O)(O)Cc1c(C)c(CP(=O)(O)OCCCC)c(C)c(CP(=O)(O)OCCCC)c1C [Compound 12, [3,5-Bis-(Butoxy-hydroxy-phosphorylmethyl)-2,4,6-trimethyl-benzyl]-phosphonic acid monobutyl ester]",,,adsorbed,++++ (++++ = >60%),not adsorbed,0 (0 = 0-10%),adsorbed,+++ (+++ = 41-60%),0,+,detected within the cytoplasm,+,detected within the cytoplasm,> 10 mM,found to bind; also recorded: bind specifically,found to bind; also recorded: bind specifically
